Reference: patent publication US20090124672A1 (priority 2007, published 2009)

Biological target: T1, hALDH2 (recombinant human mitochondria ALDH) (Homo sapiens, UniProt P05091)
T1 sequence (P05091 18-517): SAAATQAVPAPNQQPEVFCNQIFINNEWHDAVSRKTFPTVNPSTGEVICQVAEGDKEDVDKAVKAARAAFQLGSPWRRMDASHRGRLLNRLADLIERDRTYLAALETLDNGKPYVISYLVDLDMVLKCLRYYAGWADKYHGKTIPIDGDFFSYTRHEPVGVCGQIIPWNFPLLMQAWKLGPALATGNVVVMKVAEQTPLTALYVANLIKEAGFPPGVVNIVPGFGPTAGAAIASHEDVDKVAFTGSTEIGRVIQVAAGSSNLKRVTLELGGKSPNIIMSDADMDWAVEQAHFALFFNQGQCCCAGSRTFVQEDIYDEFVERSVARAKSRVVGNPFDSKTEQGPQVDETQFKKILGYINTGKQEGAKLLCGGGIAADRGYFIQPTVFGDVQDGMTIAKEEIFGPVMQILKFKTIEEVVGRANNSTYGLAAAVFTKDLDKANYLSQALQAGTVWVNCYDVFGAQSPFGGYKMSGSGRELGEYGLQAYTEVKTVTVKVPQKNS
Experiment: ALDH2 inhibition assay (NADH formation, formaldehyde substrate)
Assay type: biochemical
Settings: for inhibition at 1 µM: read-out: hALDH2 inhibition (IC50 hALDH2 column)
Protocol: ALDH2 inhibition assays were performed in sodium phosphate buffer (50 mM, pH 7.4) containing 1.2 mM NAD^+ (Sigma N7004), 1 nM hALDH2 (recombinant human mitochondria ALDH), various concentrations of test compounds (from 0.03 nM to 1000 nM), and 0.15 mM freshly prepared formaldehyde solution (Ladd Research 20295). Reactions were initiated by the addition of formaldehyde and rates were recorded by monitoring NADH formation in a temperature controlled (25° C.) FluoroMax-2 Fluorimeter with excitation and emission wavelengths set at 340 and 460 nm, respectively. […] Normally, IC50 values were determined by fitting concentration-inhibition data to sigmoidal dose-response curves with two-floating parameters: IC50 and Hill coefficient. When tight binding situation was suspected, apparent Ki values were estimated by fitting dose-response data to Morrison's equation [Methods in Enzymology 63, 437-467, 1979].

Molecule | IC50 | inhibition at 1 µM
COc1ccc(-c2nc(COc3ccc4c(=O)c(-c5ccc(O)cc5)coc4c3)no2)cc1C(F)(F)F | 20 nM | 
3-(4-hydroxyphenyl)-7-[(6-pyrazolyl(3-pyridyl))methoxy]chromen-4-one [PT-52] | 10 nM | 
7-{2-[4-(3-chlorophenyl)piperazinyl]ethoxy}-3-(4-hydroxyphenyl)chromen-4-one [PT-123] | 11 nM | 
7-{2-[4-(4-chlorophenyl)pyrazolyl]ethoxy}-3-(4-hydroxyphenyl)chromen-4-one [PT-51] | 110 nM | 
7-{3-[4-(4-chlorophenyl)pyrazolyl]propoxy}-3-(4-hydroxyphenyl)chromen-4-one [PT-106] | 110 nM | 
N#Cc1ccc(-c2coc3cc(OCc4noc(-c5cc(F)cc(C(F)(F)F)c5)n4)ccc3c2=O)cc1 [PT-1, 4-[7-({5-[3-fluoro-5-(trifluoromethyl)phenyl](1,2,4-oxadiazol-3-yl)}methoxy)-4-oxochromen-3-yl]benzenecarbonitrile] |  | 17%
CCOC(=O)c1cccc(-c2coc3cc(OCc4noc(-c5cc(F)cc(C(F)(F)F)c5)n4)ccc3c2=O)c1 [PT-3, ethyl 3-[7-({5-[3-fluoro-5-(trifluoromethyl)phenyl](1,2,4-oxadiazol-3-yl)}methoxy)-4-oxochromen-3-yl]benzoate] |  | 22%
Cc1nc(-c2ccc(C(F)(F)F)cc2)sc1COc1ccc2c(=O)c(-c3ccc(O)cc3)coc2c1 [PT-4, 3-(4-hydroxyphenyl)-7-({4-methyl-2-[4-(trifluoromethyl)phenyl](1,3-thiazol-5-yl)}methoxy)chromen-4-one] | 200 nM | 
Cc1ccc(S(=O)(=O)Nc2ccc(-c3coc4cc(OCc5sc(-c6ccc(C(F)(F)F)cc6)nc5C)ccc4c3=O)cc2)cc1 [PT-5, 3-(4-{[(4-methylphenyl)sulfonyl]amino}phenyl)-7-({4-methyl-2-[4-(trifluoromethyl)phenyl](1,3-thiazol-5-yl)}methoxy)chromen-4-one] |  | 0.19%
COC(=O)c1cccc(COc2ccc3c(=O)c(-c4ccc(OC)nc4)coc3c2)c1 [PT-6, methyl 3-{[3-(6-methoxy(3-pyridyl))-4-oxochromen-7-yloxy]methyl}benzoate] |  | 16%
COC(=O)c1cccc(COc2ccc3c(=O)c(-c4ccc(CO)cc4)coc3c2)c1 [PT-7, methyl 3-({3-[4-(hydroxymethyl)phenyl]-4-oxochromen-7-yloxy}methyl)benzoate] |  | 75%
CS(=O)(=O)Nc1ccc(-c2coc3cc(OCc4nc(-c5cc(F)cc(C(F)(F)F)c5)no4)ccc3c2=O)cc1 [PT-8, 7-({3-[5-fluoro-3-(trifluoromethyl)phenyl](1,2,4-oxadiazol-5-yl)}methoxy)-3-{4-[(methylsulfonyl)amino]phenyl}chromen-4-one] |  | 57%
N#Cc1cc(-c2coc3cc(OCc4noc(-c5cc(F)cc(C(F)(F)F)c5)n4)ccc3c2=O)ccc1F [PT-9, 2-fluoro-5-[7-({5-[5-fluoro-3-(trifluoromethyl)phenyl](1,2,4-oxadiazol-3-yl)}methoxy)-4-oxochromen-3-yl]benzenecarbonitrile] |  | 24%
CCOC(=O)COc1ccc(-c2coc3cc(OCC(=O)OCC)ccc3c2=O)cc1 [PT-10, ethyl 2-(3-{4-[(ethoxycarbonyl)methoxy]phenyl}-4-oxochromen-7-yloxy)acetate] |  | 60%
O=c1c(-c2ccc(O)cc2)coc2cc(OCc3coc(-c4cccc(C(F)(F)F)c4)n3)ccc12 [PT-12, 3-(4-hydroxyphenyl)-7-({2-[3-(trifluoromethyl)phenyl](1,3-oxazol-4-yl)}methoxy)chromen-4-one] | 3 nM | 
O=c1c(-c2ccc(O)cc2)coc2cc(OCc3coc(-c4cc(F)cc(C(F)(F)F)c4)n3)ccc12 [PT-13, 7-({2-[5-fluoro-3-(trifluoromethyl)phenyl](1,3-oxazol-4-yl)}methoxy)-3-(4-hydroxyphenyl)chromen-4-one] | 20 nM | 
